Holding throughout (assay): DTP human tumour cell line panel, 48 h
For experiment [1], the system named is NCI-H522 lung.
Experiment [2] has as its system CCRF-CEM leukemia.
Experiment [3] has as its system KM12 colon.
Experiment [4] relates to MCF7 breast.
The test system of experiment [5] is NCI-H23 lung.
In experiment [6] the test system is HL-60(TB) leukemia.
Experiment [7] has as its system M14 melanoma.
The subject of experiment [8] is U251 CNS.
For experiment [9], the system named is OVCAR-8 ovarian.
For experiment [10], the system named is OVCAR-5 ovarian.

Molecules are shown by their SMILES.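 Five compound concentrations were applied to cells in 96-well plates for 48 hours; endpoints were derived by simple linear interpolation of the resulting dose-response curve. GI50 is the concentration that inhibits growth by half. At the TGI there is no net growth.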

Take `COc1ccc(N=N/C(=N\NC(=O)c2cc(Br)ccc2O)c2ccc(N(CCC#N)CCC#N)cc2OC)cc1`: the GI50 in experiment [1] is 40.1 µg/mL; in experiment [2] it was 57.1 µg/mL; in experiment [3], 44.6 µg/mL; in experiment [4], 58.7 µg/mL; in experiment [5], 110 µg/mL; in [6], 56.7 µg/mL. Also, the GI50 in [7] was 83.7 µg/mL; in [8], above 150 µg/mL; in experiment [9], 47.5 µg/mL; in experiment [10], 108 µg/mL. Moreover, the concentration for total growth inhibition (TGI) in [1] was 141 µg/mL; in experiment [2] it was above 150 µg/mL; in experiment [3], 128 µg/mL; in experiment [4], above 150 µg/mL; in [5], above 150 µg/mL; in experiment [6], above 150 µg/mL. The TGI in experiment [7], in experiment [8], in [9] and in experiment [10] was above 150 µg/mL in each case.

`O=C(COc1cccc(/C=C2\COc3ccccc3C2=O)c1)c1ccccc1`: the GI50 in [1] is 1.81 µM; in [2] it was 1.98 µM; in experiment [3], 1.92 µM; in experiment [4], 1.98 µM; in [5], 4.47 µM; in experiment [6], 5.85 µM. Further, the GI50 was 3.12 µM in [7], 1.65 µM in experiment [8], 3.35 µM in [9] and 2.8 µM in [10]. Besides, the TGI was found to be 3.79 µM in experiment [1]; 7.62 µM in experiment [2]; 3.65 µM in experiment [3]; 4.27 µM in experiment [4]; 16.1 µM in experiment [5]; 29.2 µM in experiment [6]. The concentration for total growth inhibition (TGI) in experiment [7] amounted to 14 µM; in experiment [8], 3.03 µM; in experiment [9], 11.2 µM; in experiment [10] it was 7.23 µM.

In the case of `CN1C(=O)/C(=C2\S/C(=N\c3nnc(-c4ccccc4)o3)NC2=O)c2ccccc21`, the GI50 in experiment [1] is above 100 µM; in experiment [2], 63.7 µM; in experiment [3] it was above 100 µM; in [4], 91.9 µM; in experiment [5], above 100 µM; in experiment [7], above 100 µM. Also, the GI50 is 66.4 µM in [8], above 100 µM in [9] and above 100 µM in [10]. Moreover, the total growth inhibition concentration (TGI) in [1], in experiment [2], in [3], in [4], in experiment [5] and in experiment [7] was above 100 µM in each case. For the same molecule, the total growth inhibition concentration (TGI) in experiment [8], in experiment [9] and in experiment [10] was above 100 µM throughout.

For `O=c1c2ccccc2nc2n1CCc1c-2[nH]c2cc3c(cc12)OCO3`, the TGI in experiment [1], in experiment [2], in experiment [3], in experiment [4], in [6] and in [7] was above 25 µM throughout. Besides, the TGI in experiment [8], in experiment [9] and in experiment [10] was above 25 µM in each case. Moreover, the GI50 in experiment [2] is above 25 µM.

For the molecule `COc1cc(-c2cc(-c3cccs3)c(C#N)c(N3CCOCC3)n2)cc(OC)c1OC`, the GI50 was 10.3 µM in experiment [1]; 5.66 µM in [2]; 6.02 µM in experiment [3]; 6.68 µM in experiment [4]; above 52.1 µM in [5]; 3.12 µM in experiment [6]. Also, the GI50 in experiment [8] is 4.94 µM; in [9], above 30.4 µM; in experiment [10], above 100 µM. Also, the TGI in experiment [1] was above 100 µM; in experiment [2], above 100 µM; in experiment [3], above 100 µM; in experiment [4], above 100 µM; in [5] it was above 100 µM; in [6], 29.7 µM. Further, the TGI in experiment [8], in experiment [9] and in experiment [10] was above 100 µM in each case.

`Cc1cc2c(C(=O)NCC#N)cccc2n1-c1nc2c(c(NCc3ccccc3)n1)CCCC2`: the GI50 was 0.242 µM in experiment [1]; 0.242 µM in experiment [3]; 0.25 µM in [4]; 0.285 µM in [5]; 0.311 µM in experiment [6]; 0.22 µM in experiment [7]. For the same molecule, the GI50 was 0.227 µM in [8], 0.34 µM in experiment [9] and 0.395 µM in experiment [10]. Also, the TGI is 0.842 µM in [1]; 0.643 µM in experiment [3]; 8.17 µM in [4]; 1.19 µM in [5]; above 100 µM in experiment [6]; 0.532 µM in experiment [7]. Also, the TGI was 0.521 µM in [8], 1.98 µM in [9] and 1.94 µM in [10].

For the molecule `COC1=CC(c2ccc[nH]2)=N/C1=C\c1[nH]c(C)c(C(=O)Oc2ccccc2)c1C`, the concentration for 50% growth inhibition (GI50) in [1] is 0.227 µM; in experiment [2] it was 0.0625 µM; in experiment [3], 0.118 µM; in [4], 0.272 µM; in experiment [5] it was 0.227 µM; in [8], 0.148 µM. The concentration for 50% growth inhibition (GI50) in experiment [9] was 0.288 µM; in experiment [10] it was 0.389 µM. Moreover, the TGI is 0.979 µM in experiment [1]; above 100 µM in experiment [2]; 1.69 µM in experiment [3]; 1.49 µM in experiment [4]; 1.95 µM in [5]; 1.6 µM in experiment [8]. Besides, the results for the TGI in [9] and in experiment [10] were 1.45 µM and 1.99 µM, respectively.

Consider `CCC(C)C(=O)O[C@H]1C(=O)O[C@@H]2C[C@H]3C(C)=CC(=O)[C@@H](O)[C@]3(C)[C@H]3[C@@H](O)[C@H](O)[C@@]4(C)OC[C@]32[C@@H]14` (some centres undefined), for which the total growth inhibition concentration (TGI) in [1] was 0.0773 µM; in experiment [3], 0.138 µM; in experiment [4], below 0.01 µM; in experiment [5] it was below 0.01 µM; in [6], below 0.01 µM; in [7] it was below 0.0216 µM. The total growth inhibition concentration (TGI) in [8] was below 0.0345 µM; in experiment [9] it was below 0.0302 µM; in experiment [10], 0.0942 µM.

As a reminder, the GI50 is the concentration at which growth is held to half of that of the control. As usually defined, the TGI is the concentration giving total growth inhibition. Low values mean more potent growth arrest, high ones less potent growth arrest.
